Experiments:
Format in all cases: in vivo
corn [1] = experiment: Example 22: retest of Example 21 at reduced greenhouse temperatures; conditions: Table 22
Protocol: (§1) Containers were filled and compacted with a fumigated silt loam top soil to a depth of about 1.3 cm from the top of the container. A first container was designated as an untreated control, a second container was designated as a herbicide control, and a third container was designated as a herbicide + antidote test container. Each of the containers was seeded with a crop species. A measured amount of herbicide dispersed or dissolved in acetone was applied to a measured quantity of soil. To this same quantity of soil treated with herbicide, there was added a measured amount of antidote dispersed or dissolved in acetone. The quantity of soil treated with the herbicide and antidote was thoroughly mixed to incorporate the herbicide and antidote in the soil uniformly. The seed bed in the third container of soil was covered with the soil treated with the herbicide and antidote and the container was leveled. For each test series, the seed beds of the first and second containers were likewise covered by soil layers. the cover layer of the first container was not treated with herbicide or antidote.
(§2) The containers were then placed on a bench in a greenhouse and sub-irrigated as required for the duration of the test. […] Plant response is measured in terms of percent injury. Antidote efficacy is indicated as the difference in plant injury by the herbicide(s) without the antidote and with the antidote.
(§3) This procedure is the same as Procedure I, but modified in the manner that after incorporation of the chemicals (herbicide and antidote) the containers with the covered seedbed were treated with an initial overhead irrigation equivalent to 0.6 cm rainfall, then subsequently sub-irrigated as required on greenhouse benches.
(§4) In this example, tests were conducted as in the preceding Examples 18-20, except here the co-herbicidal component was SUTAN® PLUS, a commercial product comprising as the active herbicidal ingredient the compound butylate (Herbicide No. 10) and an antidote […] (Antidote No. 1). Again, the antidotal compounds herein were Nos. 1, 2, 7, 13 and 15. Procedure II was used.
The experiments in this example were designed as a retest of those described in Example 21 in view of the uncharacteristically poor corn safety and weed control, believed to have resulted from unseasonably high temperatures in the greenhouse. Accordingly, temperatures were reduced for these tests.

[2] = tested on: velvetleaf (Abutilon theophrasti); experiment: Example 8, Procedure II: Herbicide No. 1 + butachlor (No. 9) with antidotes
How it was run: (§5)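 Herbicide No. 1 plus butachlor, with or without antidote, applied in acetone and mixed into a soil layer covering corn seed beds, with weeds barnyardgrass and velvetleaf. Greenhouse test with an initial 0.6 cm overhead irrigation, then sub-irrigation. Percent injury was scored, and antidote efficacy taken as the injury difference with and without antidote.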

[3] = tested on: barnyardgrass (Echinochloa crusgalli); experiment: as above
How it was run: as §5

corn [4] = experiment: Example 9, Procedure II: Herbicide No. 1 + pretilachlor (No. 13) with antidotes
How it was run: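 Corn seeded in silt loam; seed bed covered with soil into which herbicide and antidote (in acetone) were mixed, alongside untreated and herbicide-only controls. Initial overhead irrigation equal to 0.6 cm rainfall, then greenhouse sub-irrigation. Response scored as percent injury; safening as injury difference without vs with antidote.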

[5] = tested on: velvetleaf (Abutilon theophrasti); experiment: Example 18, Procedure II: Herbicide No. 1 + ERADICANE (EPTC + R-25788) with auxiliary antidotes
Protocol: as §1, §2, §3
(§6) In the series of greenhouse tests described below, for routine screening purposes the herbicide/antidote compositions were tested in crop/weed combinations involving corn as the crop and either or both of the weeds barnyardgrass (Echinochloa crusgalli), a monocotyledonous weed, and velvetleaf (Abutilon theophrasti), a dicotyledonous weed. In the tables below, these weeds are indicated by the symbols "BYG" and "VL", respectively.
(§7) In the test reported in this example, the herbicidal composition was similar to that used in Example 16 in that Herbicide No. 1 was combined with EPTC (Herbicide No. 4) as a co-herbicide and the antidotes included Nos. 1, 2, 7, 13 and 15. However, in this test the EPTC was introduced as a formulation of ERADICANE (EPTC + the antidote R-25788, i.e., Antidote No. 1) at an application rate of 8.96 kg/ha. Thus, in this test two antidotes were present, viz. R-25788 and one of the auxilliary antidotes, No. 2, 13 and 15.
(§8) Test procedures were those of Procedure II above.

[6] = tested on: barnyardgrass (Echinochloa crusgalli); experiment: as above
Protocol: as §1, §2, §3, §6, §7, §8

[7] = tested on: velvetleaf (Abutilon theophrasti); experiment: Example 19, Procedure II: Herbicide No. 1 + ERADICANE EXTRA with added antidotes
Protocol: as §1, §2, §3, §6, §7
(§9) The test reported in this example was performed in the same manner and with the same antidotes used in Example 18, the only difference being the substitution of the commercial herbicidal product ERADICANE® EXTRA for ERADICANE®. ERADICANE EXTRA is a formulation containing both an antidote, i.e., R-29148 (Antidote No. 5 herein), and an extender, dietholate.

[8] = tested on: barnyardgrass (Echinochloa crusgalli); experiment: as above
Protocol: as §1, §2, §3, §6, §7, §9

corn [9] = experiment: Example 21, Procedure II: Herbicide No. 1 + SUTAN PLUS (butylate + antidote) with antidotes
Protocol: as §1, §2, §3, §4

[10] = Herbicide No.1 0.14 + No.9 2.24 kg/ha + antidote 2.24 kg/ha
[11] = Herbicide No.1 0.14 + No.9 2.24 kg/ha + antidote 8.96 kg/ha
[12] = Herbicide No.1 0.56 + No.9 2.24 kg/ha + antidote 2.24 kg/ha
[13] = Herbicide No.1 0.56 + No.9 2.24 kg/ha + antidote 8.96 kg/ha
[14] = Herbicide No.1 0.56 kg/ha + ERADICANE 8.96 kg/ha, antidote 2.24 kg/ha
[15] = Herbicide No.1 0.56 kg/ha + ERADICANE 8.96 kg/ha, antidote 8.96 kg/ha
[16] = Herbicide No.1 1.12 kg/ha + ERADICANE 8.96 kg/ha, antidote 2.24 kg/ha
[17] = Herbicide No.1 1.12 kg/ha + ERADICANE 8.96 kg/ha, antidote 8.96 kg/ha
[18] = Herbicide No.1 0.56 kg/ha + ERADICANE EXTRA 8.96 kg/ha, antidote 2.24 kg/ha
[19] = Herbicide No.1 0.56 kg/ha + ERADICANE EXTRA 8.96 kg/ha, antidote 8.96 kg/ha
[20] = Herbicide No.1 1.12 kg/ha + ERADICANE EXTRA 8.96 kg/ha, antidote 2.24 kg/ha
[21] = Herbicide No.1 1.12 kg/ha + ERADICANE EXTRA 8.96 kg/ha, antidote 8.96 kg/ha

CC1(C)OC(c2ccco2)CN1C(=O)C(Cl)Cl (stereo not drawn) [compound 15]
% Injury Corn (corn [1]; Herbicide No.1 0.56 Kg/ha + SUTAN + 8.96 Kg/ha + antidote 2.24 Kg/ha): 45%
% Injury Corn (corn [1]; Herbicide No.1 0.56 Kg/ha + SUTAN + 8.96 Kg/ha + antidote 8.96 Kg/ha): 55%
% Injury Corn (corn [1]; Herbicide No.1 1.12 Kg/ha + SUTAN + 8.96 Kg/ha + antidote 2.24 Kg/ha): 60%
% Injury Corn (corn [1]; Herbicide No.1 1.12 Kg/ha + SUTAN + 8.96 Kg/ha + antidote 8.96 Kg/ha): 45%
% Injury VL [2, 10]: 85%
% Injury VL [2, 11]: 70%
% Injury VL [2, 12]: 80%
% Injury VL [2, 13]: 75%
% Injury BYG [3, 10]: 99%
% Injury BYG [3, 11]: 98%
% Injury BYG [3, 12]: 95%
% Injury BYG [3, 13]: 97%
% Injury Corn (corn [4]; Herbicide No.1 0.14 kg/ha + Herbicide No.13 2.24 kg/ha, antidote rate 2.24 kg/ha): 5%
% Injury Corn (corn [4]; Herbicide No.1 0.14 kg/ha + Herbicide No.13 2.24 kg/ha, antidote rate 8.96 kg/ha): 0%
% Injury Corn (corn [4]; Herbicide No.1 0.56 kg/ha + Herbicide No.13 2.24 kg/ha, antidote rate 2.24 kg/ha): 15%
% Injury Corn (corn [4]; Herbicide No.1 0.56 kg/ha + Herbicide No.13 2.24 kg/ha, antidote rate 8.96 kg/ha): 5%
% Injury VL [5, 14]: 80%
% Injury VL [5, 15]: 85%
% Injury VL [5, 16]: 80%
% Injury VL [5, 17]: 65%
% Injury BYG [6, 14]: 90%
% Injury BYG [6, 15]: 90%
% Injury BYG [6, 16]: 93%
% Injury BYG [6, 17]: 85%
% Injury VL [7, 18]: 70%
% Injury VL [7, 19]: 75%
% Injury VL [7, 20]: 85%
% Injury VL [7, 21]: 75%
% Injury BYG [8, 18]: 90%
% Injury BYG [8, 19]: 85%
% Injury BYG [8, 20]: 85%
% Injury BYG [8, 21]: 90%
% Injury Corn (corn [9]; Herbicide No.1 0.56 kg/ha + SUTAN + 8.96 kg/ha, antidote 2.24 kg/ha): 25%
% Injury Corn (corn [9]; Herbicide No.1 0.56 kg/ha + SUTAN + 8.96 kg/ha, antidote 8.96 kg/ha): 25%
% Injury Corn (corn [9]; Herbicide No.1 1.12 kg/ha + SUTAN + 8.96 kg/ha, antidote 2.24 kg/ha): 30%
% Injury Corn (corn [9]; Herbicide No.1 1.12 kg/ha + SUTAN + 8.96 kg/ha, antidote 8.96 kg/ha): 20%
